Test results: US5430018A, “Cyclohexapeptide with basic nitrogen containing alkylamide groups” (priority 1991, dated 1995)
In brackets after ≈: the same amount, converted by molar mass. Numbered stars: 1 amine (or outer) side, 2 acyl side, 3 side chain; on linkers, the order of the positions; unused ones are H or OH. Bridge positions count the residues as written; N and C are the ends. Square brackets hold non-standard residues; d marks the D form. Peptide text beside a SMILES is read from it. * marks the point of attachment. Tetradecanoyl(10R,12S-Me2) = CC[C@H](C)C[C@H](C)CCCCCCCCC(=O)*; Orn(4R-OH) = O=C([C@H](C[C@@H](O)CN[*:3])N[*:1])[*:2]; hTyr(3R-OH) = N[C@H](C(=O)O)[C@H](O)Cc1ccc(O)cc1; X1 = COC(=O)C[C@@H](O)[C@H](N[*:1])C(=O)[*:2]; X2 = O=C(O)C[C@@H](O)[C@H](N[*:1])C(=O)[*:2]; Pro(3S-OH) = O=C(O)[C@H]1NCC[C@@H]1O; Hyp = O=C(O)[C@@H]1C[C@@H](O)CN1

Experiments:
C. albicans MY 1028 = assay type: cell-based, Candida albicans; conditions: MY 1028, 24 h
C. albicans MY 1055 = assay type: cell-based, Candida albicans; conditions: MY 1055, 24 h
Description: The compounds of the present invention are active against many fungi and particularly against Candida species. The antifungal properties maybe illustrated with the minimum fungicidal concentration (MFC) determination against certain Candida organisms in a microbroth dilution assay carried out in a Yeast Nitrogen Base (Difco) medium with 1% dextrose (YNBD). In separate assays, the compounds (all Seq. ID No. 1) were solubilized in 10% dimethyl sulfoxide (DMSO) and diluted to 2560 μg/ml. The solution was then diluted to 256 μg/ml in YNBD and dispensed via a multichannel pipetter into the top row of a 96-well plate (each well containing 0.15 ml of YNBD), resulting in a drug concentration of 128 μg/ml. Compounds in the top row were diluted 2-fold down the columns yielding final drug concentrations ranging from 128-0.06 μg/ml. All tests were performed in duplicate. A four-hour broth culture of C. albicans MY 1055 was adjusted using a spectrophotometer at 530 nm to equal a 0.5 McFarland Standard. This yields a cell concentration of 1-5×10^6 colony forming units (CFU)/ml. The 96-well microplates were inoculated using an MIC-2000 (Dynatech), which delivers […] per well, yielding a final inoculum per well of 1.5-7.5×10^3 cells. One column per tray containing drug-free growth control wells was included. […]

Compound	MFC C. albicans MY 1028 (C. albicans MY 1028) [µg/mL]	MFC C. albicans MY 1055 (C. albicans MY 1055) [µg/mL]
CC[C@H](C)C[C@H](C)CCCCCCCCC(=O)N[C@H]1C[C@@H](O)CNC(=O)[C@@H]2[C@@H](O)CCN2C(=O)[C@H]([C@H](O)CC(=O)OC)NC(=O)[C@H]([C@H](O)Cc2ccc(O)cc2)NC(=O)[C@@H]2C[C@@H](O)CN2C(=O)[C@H]([C@@H](C)O)NC1=O [methyl ester] ({Tetradecanoyl(10R,12S-Me2)}-[Orn(4R-OH)]T[Hyp][hTyr(3R-OH)][X1][Pro(3S-OH)]; lactam 1-C)	0.25 (≈ 0.238 µM)	0.5 (≈ 0.477 µM)
CC[C@H](C)C[C@H](C)CCCCCCCCC(=O)N[C@H]1C[C@@H](O)CNC(=O)[C@@H]2[C@@H](O)CCN2C(=O)[C@H]([C@H](O)CC(=O)O)NC(=O)[C@H]([C@H](O)Cc2ccc(O)cc2)NC(=O)[C@@H]2C[C@@H](O)CN2C(=O)[C@H]([C@@H](C)O)NC1=O [acid] ({Tetradecanoyl(10R,12S-Me2)}-[Orn(4R-OH)]T[Hyp][hTyr(3R-OH)][X2][Pro(3S-OH)]; lactam 1-C)	1 (≈ 0.967 µM)	0.5 (≈ 0.483 µM)
